According to paper PMC12352620, “Fragment-based discovery of dual ligand pharmacophores for lipid-sensing transcription factors for designed polypharmacology” (RSC Medicinal Chemistry, 2025):

Legend:
Type in all cases: cell-based
[1] = molecular target: T1, FXR (Homo sapiens, UniProt Q96RI1); test: Gal4-hybrid reporter gene assay FXR; details: mean ± S.E.M., n ≥ 3; for EC50 / EC50 FXR: HEK293T, Gal4-hybrid reporter, Inactive = tested 1–300 μM; for max. fold activation FXR: maximum reporter activation vs DMSO (0.1%) treated cells
T1 construct: expressed in transfected cells; host or cells: HEK293T
T1 sequence (Q96RI1 262-486 limits assumed): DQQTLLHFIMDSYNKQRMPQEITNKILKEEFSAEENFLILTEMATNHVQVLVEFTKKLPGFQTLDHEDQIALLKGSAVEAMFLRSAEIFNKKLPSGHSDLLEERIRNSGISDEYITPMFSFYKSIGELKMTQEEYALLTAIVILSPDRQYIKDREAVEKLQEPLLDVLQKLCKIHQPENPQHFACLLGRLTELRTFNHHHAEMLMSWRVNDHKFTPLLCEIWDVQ
Description: (§1) NR modulation was determined as described previously[45] in Gal4 hybrid reporter gene assays in HEK293T cells (German Collection of Microorganisms and Cell Culture GmbH, DSMZ) using pFR-Luc (Stratagene, La Jolla, CA, USA; reporter), pRL-SV40 (Promega, Madison, WI, USA; internal control) and the hybrid receptor clones pFA-CMV-hTHRα-LBD,[46] pFA-CMV-hPPARγ-LBD,[47] pFA-CMV-hFXR-LBD,[48] and pFA-CMV-hRXRα-LBD,[49] coding for the hinge region and ligand binding domain of the canonical isoform of the respective NR. Cells were cultured in Dulbecco's modified Eagle's medium (DMEM), high glucose supplemented with 10% fetal calf serum (FCS), sodium pyruvate (1 mM), penicillin (100 U mL^−1), and streptomycin (100 μg mL^−1) at 37 °C and 5% CO2 and seeded in 96-well plates (3 × 10^4 cells per well). After 24 h, medium was changed to Opti-MEM without supplements and cells were transiently transfected using Lipofectamine LTX reagent (Invitrogen, Carlsbad, CA, USA) according to the manufacturer's protocol. Five hours after transfection, cells were incubated with the test compounds in Opti-MEM supplemented with penicillin (100 U mL^−1), streptomycin (100 μg mL^−1) and 0.1% DMSO for 16 h before luciferase activity was measured using the Dual-Glo Luciferase Assay System (Promega) according to the manufacturer's protocol on a Tecan Spark luminometer (Tecan Deutschland GmbH, Crailsheim, Germany). Firefly luminescence was divided by Renilla luminescence and multiplied by 1000 resulting in relative light units (RLU) to normalize for transfection efficiency and cell growth. Fold activation was obtained by dividing the mean RLU of test compound by the mean RLU of the untreated control. All samples were tested in at least three biologically independent experiments in duplicates. For dose–response curve fitting and calculation of EC50 values, the equation “[agonist] vs. response − variable slope (four parameters)” was used in GraphPad Prism (version 7.00, GraphPad Software, La Jolla, CA, USA). For selectivity profiling, the hybrid reporter gene assay was performed with Gal4 fusion receptor plasmids for RARα, PPARα, PPARδ, VDR, CAR and LXRα. The following reference agonists were used: triiodothyronine (1 μM, THR), all-trans retinoic acid (1 μM, RAR), GW7647 (1 μM, PPARα), pioglitazone (1 μM, PPARγ), L165041 (1 μM, PPARδ), calcitriol (1 μM, VDR), CITCO (1 μM, CAR), T0901317 (1 μM, LXR), GW4064 (1 μM, FXR), bexarotene (1 μM, RXR).

[2] = molecular target: T2, THRα (Homo sapiens, UniProt P10827); test: Gal4-hybrid reporter gene assay THRα; details: mean ± S.E.M., n ≥ 3; for EC50 / EC50 THRα: HEK293T, Gal4-hybrid reporter, Inactive = tested 1–300 μM; for max. fold activation THRα: maximum reporter activation vs DMSO (0.1%) treated cells
T2 construct: expressed in transfected cells; host or cells: HEK293T
T2 sequence (P10827 128-410 isoform P10827-2 limits assumed): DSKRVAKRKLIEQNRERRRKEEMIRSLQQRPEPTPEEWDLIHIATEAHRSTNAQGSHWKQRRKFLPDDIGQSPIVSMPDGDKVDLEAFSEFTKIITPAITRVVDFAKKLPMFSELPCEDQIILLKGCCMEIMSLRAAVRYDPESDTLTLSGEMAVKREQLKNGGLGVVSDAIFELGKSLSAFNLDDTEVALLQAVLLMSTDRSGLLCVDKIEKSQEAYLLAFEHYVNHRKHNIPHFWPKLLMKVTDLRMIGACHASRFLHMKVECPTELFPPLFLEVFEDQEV
Description: as §1

[3] = molecular target: T3, PPARγ (Homo sapiens, UniProt P37231); test: Gal4-hybrid reporter gene assay PPARγ; details: mean ± S.E.M., n ≥ 3; for EC50: HEK293T, Gal4-hybrid reporter, Inactive = tested 1–300 μM; for max. fold activation PPARγ: maximum reporter activation vs DMSO (0.1%) treated cells
T3 construct: expressed in transfected cells; host or cells: HEK293T
T3 sequence (P37231 238-503 limits assumed): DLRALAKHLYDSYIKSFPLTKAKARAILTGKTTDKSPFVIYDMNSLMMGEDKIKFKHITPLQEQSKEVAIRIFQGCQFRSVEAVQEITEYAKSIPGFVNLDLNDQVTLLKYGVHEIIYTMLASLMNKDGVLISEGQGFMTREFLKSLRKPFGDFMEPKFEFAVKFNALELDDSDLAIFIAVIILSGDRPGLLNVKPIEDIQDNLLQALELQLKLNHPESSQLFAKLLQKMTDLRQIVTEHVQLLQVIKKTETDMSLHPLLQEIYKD
Description: as §1

[4] = molecular target: T4, RXRα (Homo sapiens, UniProt P19793); test: Gal4-hybrid reporter gene assay RXRα; details: mean ± S.E.M., n ≥ 3; for max. fold activation RXRα: maximum reporter activation vs DMSO (0.1%) treated cells
T4 construct: expressed in transfected cells; host or cells: HEK293T
T4 sequence (P19793 227-458 limits assumed): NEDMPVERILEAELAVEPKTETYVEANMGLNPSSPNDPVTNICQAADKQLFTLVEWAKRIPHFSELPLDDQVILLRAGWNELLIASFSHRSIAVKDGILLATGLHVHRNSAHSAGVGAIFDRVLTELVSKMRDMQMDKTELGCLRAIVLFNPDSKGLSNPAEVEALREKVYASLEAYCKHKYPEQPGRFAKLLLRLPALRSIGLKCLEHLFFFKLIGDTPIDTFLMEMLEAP
Description: as §1

[5] = HEK293T, Gal4-hybrid reporter, Inactive = tested 1–300 μM

CCOc1ccc(C(=O)/C=C/C(=O)O)cc1 [2.7]
EC50 [1]: 26 ± 1 µM | max. fold activation FXR [1]: (9.5 ± 0.4-fold) | EC50 [2]: 27 ± 1 µM | max. fold activation THRα [2]: (8.9 ± 0.5-fold) | EC50 [3]: 25.9 ± 0.4 µM | max. fold activation PPARγ [3]: (31.2 ± 0.6-fold) | EC50 [4, 5]: 33 ± 6 µM | max. fold activation RXRα [4]: (8 ± 1-fold)

O=C(O)/C=C/C(=O)c1ccccc1 [4.1, (E)-4-Oxo-4-phenylbut-2-enoic acid]
EC50 FXR [1]: Inactive | EC50 THRα [2]: Inactive | EC50 [3]: 62 ± 2 µM | max. fold activation PPARγ [3]: (26 ± 2-fold) | EC50 RXRα [4, 5]: Inactive

Cc1cccc(C(=O)/C=C/C(=O)O)c1 [4.3, (E)-4-Oxo-4-(m-tolyl)but-2-enoic acid]
EC50 [1]: 22 ± 5 µM | max. fold activation FXR [1]: (3.4 ± 0.4-fold) | EC50 [2]: 19 ± 8 µM | max. fold activation THRα [2]: (3.1 ± 0.6-fold) | EC50 [3]: 38 ± 1 µM | max. fold activation PPARγ [3]: (19 ± 1-fold) | EC50 [4, 5]: 30 ± 5 µM | max. fold activation RXRα [4]: (4.7 ± 0.5-fold)

O=C(O)CCCC#Cc1ccccc1 [2.27]
EC50 FXR [1]: Inactive | EC50 THRα [2]: Inactive | EC50 [3]: 106 ± 5 µM | max. fold activation PPARγ [3]: (25.0 ± 0.8-fold) | EC50 [4, 5]: 129 ± 11 µM | max. fold activation RXRα [4]: (22.5 ± 1.5-fold)

O=C(O)/C=C/C(=O)c1ccc(Cl)cc1 [4.5, (E)-4-Oxo-4-(4-chlorophenyl)but-2-enoic acid]
EC50 [1]: 40 ± 3 µM | max. fold activation FXR [1]: (3.1 ± 0.3-fold) | EC50 [2]: 46 ± 7 µM | max. fold activation THRα [2]: (7 ± 2-fold) | EC50 [3]: 30 ± 4 µM | max. fold activation PPARγ [3]: (12 ± 2-fold) | EC50 [4, 5]: 46 ± 1 µM | max. fold activation RXRα [4]: (4.0 ± 0.2-fold)

O=C(O)c1coc(-c2cccc(Cl)c2)c1 [3.2, 5-(3-Chlorophenyl)furan-3-carboxylic acid]
EC50 [1]: 11 ± 2 µM | max. fold activation FXR [1]: (1.7 ± 0.1-fold) | EC50 [2]: 26 ± 5 µM | max. fold activation THRα [2]: (2.1 ± 0.2-fold) | EC50 [3]: 32 ± 2 µM | max. fold activation PPARγ [3]: (3.2 ± 0.2-fold) | EC50 [4, 5]: 14 ± 5 µM | max. fold activation RXRα [4]: (2.1 ± 0.2-fold)
